Assay results: patent US20250186408A1, “TREATMENT OF PHARMACORESISTANT EPILEPSY” (Katholieke Universiteit Leuven, priority 2021, published 2025)
Like-named read-outs stand apart in the source and are kept apart here.

Assays:
Caco-2 permeability = format: in vitro ADME; details: human; for recovery at 10 μM: Caco-2, Caco-2, 10 μM; for Papp A→B at 10 μM / Papp B→A at 10 μM: Caco-2, pH 6.5 and 7.4, 10 μM; for Papp A→B at 10 μM: apical to basolateral; for Papp B→A at 10 μM: basolateral to apical
Excerpt: In vitro ADME profiling of compounds was done by Eurofins Panlabs Inc (St Charles, MO, USA) using their ADME-Tox service (Cat Ref P375, Tier 1 ADME Panel). […] (28). The atom-based log P calculation method, called OsirisP, uses as an increment system and adds contributions of every atom based on its atom type. The prediction engine distinguishes a total of 368 atom types and was optimized using a training set of more than 5000 molecules with experimentally determined log P values. The free prediction engine has proven to outperform many alternative calculation methods (29).
Caco-2 cells were derived from a human colorectal adenocarcinoma. For permeability assays, cells were seeded at 1×10^5 cells/cm2 in 96 Multiscreen™ plates (Millipore) and used at days 21-25 post-seeding. Cells were used for 15 consecutive passages in culture. HBSS with 10 mM MES at pH 6.5 (apical side) or HBSS with HEPES at pH 7.4 (basolateral side) were used as the transport buffers. Test compounds were added at 10 μM concentration (final solvent concentration of 1% DMSO) to the apical side to determine apical to basolateral (A-B) transport and to the basal side to determine basolateral to apical (B-A) transport. For inhibition studies, 100 μM verapamil was included on both the A and B sides. Aliquots were taken from the donor side (A-B transport) at time zero and the end point, and from the receiver side (B-A transport) at the end point. Propranolol, labetalol, ranitidine, and colchicine (P-glycoprotein substrate) were included in each assay. Samples were analysed by HPLC-MS/MS for quantification. Papp (cm/sec) was calculated from the following equation: […]
Where VR is the volume of the receiver, C is the concentration of the test compound (either at the donor or receiver side and at mid-point or end point of the incubation), Δt is the incubation time (seconds) and A is the surface area of the cell monolayer (0.11 cm^2).

HRH1 = HRH1 (Homo sapiens, UniProt P35367); experiment: Calcium Flux HRH1 Agonist; format: cell-based; details: for Emax: read-out: Max response
HRH1, sequence (P35367 whole entry): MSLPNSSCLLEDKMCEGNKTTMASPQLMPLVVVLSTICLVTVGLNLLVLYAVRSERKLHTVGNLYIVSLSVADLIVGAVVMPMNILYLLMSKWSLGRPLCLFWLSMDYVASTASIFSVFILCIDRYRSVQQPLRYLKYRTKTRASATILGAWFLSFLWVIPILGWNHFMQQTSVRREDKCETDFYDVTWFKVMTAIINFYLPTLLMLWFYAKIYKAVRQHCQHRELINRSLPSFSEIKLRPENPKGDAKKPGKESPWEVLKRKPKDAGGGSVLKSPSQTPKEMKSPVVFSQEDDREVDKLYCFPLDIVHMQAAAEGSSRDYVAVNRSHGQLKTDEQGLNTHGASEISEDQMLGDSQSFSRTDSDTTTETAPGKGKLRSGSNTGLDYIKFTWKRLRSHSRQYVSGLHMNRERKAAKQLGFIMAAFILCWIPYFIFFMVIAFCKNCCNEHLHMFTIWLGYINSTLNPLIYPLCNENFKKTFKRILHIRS
Method: (§1) (≤0.2% DMSO concentration). Assays were performed in 1× dye loading buffer consisting of 1× Dye (DiscoverX, Calcium No Wash^PLUS kit, Catalog No. 90-0091), 1× Additive A and 2.5 mM Probenecid in HBSS/20 mM HEPES. Probenecid was prepared fresh. Prior to testing, media was aspirated from cells and replaced with 25 μL dye loading buffer. Cells were incubated for 45 min at 37° C. and then 20 min at RT. For agonist determination, 25 μL of 2× compound in HBSS/20 mM HEPES was added using a FLIPR Tetra (MDS). […] 25 μL of 2× sample was added and cells were incubated for 30 min at RT in the dark to equilibrate plate temperature. After incubation, antagonist determination was initiated by addition of 25 μL of 1× compound with 3×EC80 agonist using FLIPR. For both agonist and antagonist formats, activity was measure on a FLIPR Tetra (MDS). Calcium mobilization was monitored for 2 min with a 5 sec baseline read.
(§2) FLIPR read—Area under the curve, was calculated for the entire 2 min read.

EDNRA = target: T1, EDNRA (Homo sapiens, UniProt P25101); experiment: Calcium Flux EDNRA Antagonist; format: cell-based; details: for Emax: read-out: Max response; for IC50: read-out: RC50, result type IC50
T1 sequence (P25101 21-427): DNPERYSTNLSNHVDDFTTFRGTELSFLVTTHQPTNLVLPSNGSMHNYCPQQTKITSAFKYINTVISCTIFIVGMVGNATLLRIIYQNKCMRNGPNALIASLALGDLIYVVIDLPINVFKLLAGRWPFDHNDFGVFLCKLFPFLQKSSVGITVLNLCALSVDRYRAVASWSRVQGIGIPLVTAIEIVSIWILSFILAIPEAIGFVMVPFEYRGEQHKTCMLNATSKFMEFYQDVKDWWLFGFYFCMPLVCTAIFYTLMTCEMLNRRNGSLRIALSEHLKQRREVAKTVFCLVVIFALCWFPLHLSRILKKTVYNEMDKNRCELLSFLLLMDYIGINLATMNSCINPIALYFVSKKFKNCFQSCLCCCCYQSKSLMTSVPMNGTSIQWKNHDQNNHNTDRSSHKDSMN
Method: as §1, §2

HRH2 = HRH2 (Homo sapiens, UniProt P25021); experiment: cAMP HRH2 Antagonist; format: cell-based; details: for Emax: read-out: Max response
HRH2, sequence (P25021 whole entry): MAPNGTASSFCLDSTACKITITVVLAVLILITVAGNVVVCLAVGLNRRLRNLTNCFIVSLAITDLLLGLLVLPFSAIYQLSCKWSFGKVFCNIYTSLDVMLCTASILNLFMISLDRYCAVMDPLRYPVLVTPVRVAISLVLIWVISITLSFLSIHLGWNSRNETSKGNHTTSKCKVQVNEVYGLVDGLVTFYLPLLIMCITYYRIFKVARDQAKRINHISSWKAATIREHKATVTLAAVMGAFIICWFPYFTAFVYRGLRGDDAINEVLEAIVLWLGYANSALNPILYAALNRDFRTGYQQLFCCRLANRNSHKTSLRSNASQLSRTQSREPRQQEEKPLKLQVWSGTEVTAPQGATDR
Method: cAMP Hunter cell lines were expanded from freezer stocks. […] For Gi agonist determination, cells were incubated with sample in the presence of EC80 forskolin to induce response. For both conditions, media was aspirated from cells and replaced with 15 μL 2:1 HBSS/10 mM HEPES:cAMP XS+ Ab reagent. […] 5 μL of 4× sample was added to cells and incubated at 37° C. or room temperature (RT) for 30 or 60 min. Final assay vehicle concentration was 1%. […] Media was aspirated from cells and replaced with 10 μL 1:1 HBSS/HEPES:cAMP XS+ Ab reagent. […] For Gi coupled GPCRs, EC80 forskolin was included. […] Compound activity was analyzed using CBIS data analysis suite (ChemInnovation, CA).

CHRM2 = target: T2, CHRM2 (Homo sapiens, UniProt P08172); experiment: cAMP CHRM2 Agonist; details: for Emax: read-out: Max response
T2 sequence (P08172 1-466): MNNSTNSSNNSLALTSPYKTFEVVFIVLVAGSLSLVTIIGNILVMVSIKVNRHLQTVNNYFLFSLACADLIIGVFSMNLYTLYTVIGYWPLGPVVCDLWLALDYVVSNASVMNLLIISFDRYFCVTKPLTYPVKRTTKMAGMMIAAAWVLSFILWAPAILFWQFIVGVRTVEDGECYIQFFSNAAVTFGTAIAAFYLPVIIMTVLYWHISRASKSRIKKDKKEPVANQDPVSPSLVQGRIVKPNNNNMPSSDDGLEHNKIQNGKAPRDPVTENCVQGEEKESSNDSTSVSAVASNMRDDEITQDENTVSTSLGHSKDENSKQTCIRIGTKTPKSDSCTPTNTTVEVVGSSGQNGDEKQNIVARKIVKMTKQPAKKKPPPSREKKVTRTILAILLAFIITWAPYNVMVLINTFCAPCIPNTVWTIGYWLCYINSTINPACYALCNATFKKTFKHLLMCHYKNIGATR
Method: In vitro pharmacological profiling of compounds was done against 78 functional assays for 47 common off-targets (30) by Eurofins DiscoverX Corporation (Fremont, CA, USA) using their SAFETYscan E/IC50 ELECT service (Cat Ref 87-1003DR, Safety47 Panel Dose Response). […] Compounds were tested in a range of 10 concentrations, following a 3-fold serial dilution, starting from 10 μM. The assays were performed utilizing the PathHunter enzyme fragment complementation (EFC) technology, FLIPR®-based cellular screening assays, and KINOMEscan kinase binding assays.
(§3) cAMP Hunter cell lines were expanded from freezer stocks. Prior to testing, cells were seeded in a total volume of 20 μL into white walled 384-well microplates and incubated at 37° C. cAMP modulation was determined using the DiscoverX HitHunter cAMP XS+ assay. For Gs agonist determination, cells were incubated with sample to induce response. For Gi agonist determination, cells were incubated with sample in the presence of EC80 forskolin to induce response. For both conditions, media was aspirated from cells and replaced with 15 μL 2:1 HBSS/10 mM HEPES:cAMP XS+ Ab reagent. Intermediate dilution of sample stocks was performed to generate 4× sample in assay buffer (containing 4×EC80 forskolin in the case of antagonist determination). 5 μL of 4× sample was added to cells and incubated at 37° C. or room temperature (RT) for 30 or 60 min. Final assay vehicle concentration was 1%. For antagonist determination, cells were pre-incubated with sample followed by agonist challenge at the EC80 concentration. Media was aspirated from cells and replaced with 10 μL 1:1 HBSS/HEPES:cAMP XS+ Ab reagent. 5 μL of 4× compound was added to the cells and incubated at 37° C. or RT for 30 min. 5 μL of 4×EC80 agonist was added to the cells and incubated at 37° C. or RT for 30 or 60 min. For Gi coupled GPCRs, EC80 forskolin was included. […] Microplates were read following signal generation with a PerkinElmer Envision™ instrument for chemiluminescent signal detection. Compound activity was analyzed using CBIS data analysis suite (ChemInnovation, CA).

DRD2S [1] = target: T3, DRD2S (Homo sapiens, UniProt P14416); experiment: cAMP DRD2S Agonist; details: for Emax: read-out: Max response
T3 sequence (P14416 1-414 isoform P14416-2): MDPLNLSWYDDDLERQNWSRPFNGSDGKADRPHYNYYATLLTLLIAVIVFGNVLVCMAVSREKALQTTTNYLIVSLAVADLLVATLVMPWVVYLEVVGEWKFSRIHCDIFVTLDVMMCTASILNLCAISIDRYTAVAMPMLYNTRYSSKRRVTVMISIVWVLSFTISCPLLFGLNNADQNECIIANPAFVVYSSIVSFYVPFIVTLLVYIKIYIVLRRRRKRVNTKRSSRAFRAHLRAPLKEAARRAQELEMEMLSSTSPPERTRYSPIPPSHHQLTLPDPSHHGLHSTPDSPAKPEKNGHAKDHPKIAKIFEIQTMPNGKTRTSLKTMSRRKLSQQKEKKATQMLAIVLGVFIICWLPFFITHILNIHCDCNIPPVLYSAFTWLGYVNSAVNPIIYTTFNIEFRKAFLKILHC
Method: (§4) In vitro pharmacological profiling of compounds was done against 78 functional assays for 47 common off-targets (30) by Eurofins DiscoverX Corporation (Fremont, CA, USA) using their SAFETYscan E/IC50 ELECT service (Cat Ref 87-1003DR, Safety47 Panel Dose Response). […] Compounds were tested in a range of 10 concentrations, following a 3-fold serial dilution, starting from 10 μM.
as §3

DRD2S [2] = target: T3, DRD2S; experiment: cAMP DRD2S Antagonist; details: for Emax: read-out: Max response
Method: as §4, §3

[3] = read-out: percentual recovery, apical to basolateral direction
[4] = read-out: percentual recovery, basolateral to apical direction

Clc1cccc(C#Cc2n[nH]c3ncccc23)c1 [Compound 10.1, 3-((3-chlorophenyl)ethynyl)-1H-pyrazolo[3,4-b]pyridine]
recovery at 10 μM (Caco-2 permeability; [3]): 13% | recovery at 10 μM (Caco-2 permeability; [4]): 44% | Papp A→B at 10 μM (Caco-2 permeability): 3.3 ×10⁻⁶ cm/s | Papp B→A at 10 μM (Caco-2 permeability): 0.7 ×10⁻⁶ cm/s | Emax (HRH1; Calcium Flux HRH1 Agonist): 0% | EC50 (HRH1; Calcium Flux HRH1 Agonist, read-out: RC50, result type EC50): > 10 µM | Emax (EDNRA; Calcium Flux EDNRA Antagonist): 0% | IC50 (EDNRA; Calcium Flux EDNRA Antagonist): > 10 µM | Emax (HRH2; cAMP HRH2 Antagonist): 13.9% | IC50 (HRH2; cAMP HRH2 Antagonist, read-out: RC50, result type IC50): > 10 µM | EC50 (CHRM2): > 10 µM | Emax (CHRM2): 32.5% | EC50 (DRD2S [1]): > 10 µM | Emax (DRD2S [1]): 15% | IC50 (DRD2S [2]): > 10 µM | Emax (DRD2S [2]): 0%

CC(C)(C)c1ccc(C#CC(O)c2ccccc2)cc1 (racemic) [Compound 3.3, rac-3-(4-(tert-butyl)phenyl)-1-phenylprop-2-yn-1-ol]
recovery at 10 μM (Caco-2 permeability; [3]): 6% | recovery at 10 μM (Caco-2 permeability; [4]): 15% | Papp A→B at 10 μM (Caco-2 permeability): 0.4 ×10⁻⁶ cm/s | Papp B→A at 10 μM (Caco-2 permeability): 0.1 ×10⁻⁶ cm/s | EC50 (HRH1): > 10 µM | Emax (HRH1): 0% | IC50 (EDNRA; Calcium Flux EDNRA Antagonist): > 10 µM | Emax (EDNRA): 0% | IC50 (HRH2): > 10 µM | Emax (HRH2): 2.7% | EC50 (CHRM2): > 10 µM | Emax (CHRM2): 0% | EC50 (DRD2S [1]): > 10 µM | Emax (DRD2S [1]): 0% | IC50 (DRD2S [2]): 7.9 µM | Emax (DRD2S [2]): 63.5%
